Consider 25 compounds from US10689377B2 (Mirati Therapeutics, Inc., priority 2017, dated 2020).

Chain of KRas G12C (P01116 1-188 isoform P01116-2 G12C): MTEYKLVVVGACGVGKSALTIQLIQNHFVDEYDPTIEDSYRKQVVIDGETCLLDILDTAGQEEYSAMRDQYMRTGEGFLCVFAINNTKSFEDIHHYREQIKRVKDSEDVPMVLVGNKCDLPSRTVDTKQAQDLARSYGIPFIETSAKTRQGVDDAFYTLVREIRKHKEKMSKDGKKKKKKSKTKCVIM

The assay concerns the target KRas G12C (Homo sapiens, UniProt P01116, G12C). In words: Cellular inhibition of KRas G12C measured by Phospho-ERK in NCI-H358 cells. The assay is classed as cell-based. The note with it: pERK(Thr202/Tyr204) normalized with GAPDH, NCI-H358 cells, 3 hours; read-out: IC50. In short, it runs like this:
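NCI-H358 cells were allowed to attach for 8-12 hours, then exposed to compounds for 3 hours at 0.5% DMSO final. After formaldehyde fixation and methanol permeabilization, phospho-ERK (Thr202/Tyr204) was detected by in-cell immunofluorescence and normalized to GAPDH; IC50 came from a 4-parameter fit of percent-of-DMSO values.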
Regarding `C=CC(=O)N1CC2(C1)CN(c1ncnc3c1CC(=O)N(c1cc(O)cc4ccccc14)C3)C2` [Example 114, 4-(6-acryloyl-2,6-diazaspiro[3.3]heptan-2-yl)-7-(3-hydroxynaphthalen-1-yl)-7,8-dihydropyrido[3,4-d]pyrimidin-6(5H)-one], the IC50 (in general, the concentration that gives 50% inhibition) is over 1000 nM.

Take `C=CC(=O)N1CCN(c2nc(O[C@H](C)CN(C)C)nc3c2CCN(c2c(C)ccc4[nH]ncc24)C3)CC1` [Example 162, 1-[4-[2-[(1R)-2-(dimethylamino)-1-methyl-ethoxy]-7-(5-methyl-1H-indazol-4-yl)-6,8-dihydro-5H-pyrido[3,4-d]pyrimidin-4-yl]piperazin-1-yl]prop-2-en-1-one]: the IC50 was over 1000 nM.

Turning to `C=CC(=O)N1CCN(c2nc(OC[C@@H]3CCCN3C)nc3c2CCN(c2c(C)c(C)cc4[nH]ccc24)C3)CC1` [Example 457, 1-[4-[7-(5,6-dimethyl-1H-indol-4-yl)-2-[[(2S)-1-methylpyrrolidin-2-yl]methoxy]-6,8-dihydro-5H-pyrido[3,4-d]pyrimidin-4-yl]piperazin-1-yl]prop-2-en-1-one], the IC50 lay within 0.1 to 1000 nM.

As to `C=CC(=O)N1CCN(c2nc(OCCCN(C)C)nc3c2CCN(C(C)c2ccccc2)C3)CC1` (stereo not shown) [Example 25, 1-(4-(2-(3-(dimethylamino)propoxy)-7-(1-phenylethyl)-5,6,7,8-tetrahydropyrido[3,4-d]pyrimidin-4-yl)piperazin-1-yl)prop-2-en-1-one], the IC50 is over 1000 nM.

As to `C=CC(=O)N1CCN(c2nc(OC[C@@H]3CCCN3C)nc3c2CCN(c2c(O)cccc2F)C3)[C@@H](C)C1` [Example 321, 1-[(3S)-4-[7-(2-fluoro-6-hydroxy-phenyl)-2-[[(2S)-1-methylpyrrolidin-2-yl]methoxy]-6,8-dihydro-5H-pyrido[3,4-d]pyrimidin-4-yl]-3-methyl-piperazin-1-yl]prop-2-en-1-one], the IC50 was over 1000 nM.

Turning to `C=CC(=O)N1CCN(c2nc(OC[C@@H]3C[C@@H](OC)CN3C)nc3c2CCN(c2cccc(Cl)c2C(F)(F)F)C3)C[C@@H]1CC#N` [Example 332, 2-[(2S)-4-[7-[3-chloro-2-(trifluoromethyl)phenyl]-2-[[(2S,4R)-4-methoxy-1-methyl-pyrrolidin-2-yl]methoxy]-6,8-dihydro-5H-pyrido[3,4-d]pyrimidin-4-yl]-1-prop-2-enoyl-piperazin-2-yl]acetonitrile], the IC50 is 0.1 to 1000 nM.

For `C=CC(=O)N1CCN(c2nc(OCCCN3CCOCC3)nc3c2CCN(c2cc(O)cc(Cl)c2F)C3)CC1` [Example 232, 1-(4-(7-(3-chloro-2-fluoro-5-hydroxyphenyl)-2-(3-morpholinopropoxy)-5,6,7,8-tetrahydropyrido[3,4-d]pyrimidin-4-yl)piperazin-1-yl)prop-2-en-1-one], the half-maximal inhibitory concentration (IC50) was over 1000 nM.

As to `C=CS(=O)(=O)N1CCN(c2nc(OC[C@@H]3CCCN3C)nc3c2CCN(c2cccc(C)c2C)C3)CC1` [Example 343, 7-(2,3-dimethylphenyl)-2-[[(2S)-methylpyrrolidin-2-yl]methoxy]-4-(4-vinylsulfonylpiperazin-1-yl)-6,8-dihydro-5H-pyrido[3,4-d]pyrimidine], the half-inhibitory concentration (IC50) is over 1000 nM.

For the compound `Cc1cccc2cccc(N3CCc4c(nc(OC[C@@H]5CC(F)(F)CN5C)nc4N4CCN(C(=O)/C=C/CF)[C@@H](CC#N)C4)C3)c12` [Example 601, 2-[(2S)-4-[2-[[(2S)-4,4-difluoro-1-methyl-pyrrolidin-2-yl]methoxy]-7-(8-methyl-1-naphthyl)-6,8-dihydro-5H-pyrido[3,4-d]pyrimidin-4-yl]-1-[(E)-4-fluorobut-2-enoyl]piperazin-2-yl]acetonitrile], the IC50 lay within 0.1 to 1000 nM.

In the case of `C=CC(=O)N1CCN(c2nc(OC[C@@H]3CCN(C)C3)nc3c2CCN(c2ccccc2C(F)(F)F)C3)CC1CC#N` (stereo partly drawn) [Example 281, 2-(1-acryloyl-4-(2-(((R)-1-methylpyrrolidin-3-yl)methoxy)-7-(2-(trifluoromethyl)phenyl)-5,6,7,8-tetrahydropyrido[3,4-d]pyrimidin-4-yl)piperazin-2-yl)acetonitrile], the IC50 lay in the range of 0.1 to 1000 nM.

On to `C=CC(=O)N1CCN(c2nc(OC[C@H]3CCCN3C)nc3c2CCN(c2ccccc2C(F)(F)F)C3)CC1CC#N` (stereo partly drawn) [Example 299, 2-[4-[2-[[(2R)-1-methylpyrrolidin-2-yl]methoxy]-7-[2-(trifluoromethyl)phenyl]-6,8-dihydro-5H-pyrido[3,4-d]pyrimidin-4-yl]-1-prop-2-enoyl-piperazin-2-yl]acetonitrile], for which the IC50 was in the range of 0.1 to 1000 nM.

For `C=CC(=O)N1CCN(c2nc(OCC(CO)N(C)C)nc3c2CCN(c2cc(O)cc4ccccc24)C3)CC1` (stereo not shown) [Example 55, 1-(4-(2-(2-(dimethylamino)-3-hydroxypropoxy)-7-(3-hydroxynaphthalen-1-yl)-5,6,7,8-tetrahydropyrido[3,4-d]pyrimidin-4-yl)piperazin-1-yl)prop-2-en-1-one], the IC50 lay within 0.1 to 1000 nM.

Take `C=CC(=O)N1CCN(c2nc(OC[C@@H]3CCCN3C)nc3c2CCN(c2ccccc2C(F)(F)F)C3)C[C@@H]1CC#N` [Example 237, 2-((S)-1-acryloyl-4-(2-(((S)-1-methylpyrrolidin-2-yl)methoxy)-7-(2-(trifluoromethyl)phenyl)-5,6,7,8-tetrahydropyrido [3,4-d]pyrimidin-4-yl)piperazin-2-yl)acetonitrile 2,2,2-trifluoroacetate]: the IC50 was 0.1 to 1000 nM.

With `Cc1cccc2cccc(N3CCc4c(nc(OCCC(=O)N(C)C)nc4N4CCN(C(=O)/C=C/CN(C)C)[C@@H](CC#N)C4)C3)c12` [Example 463, (S,E)-3-((4-(3-(cyanomethyl)-4-(4-(dimethylamino)but-2-enoyl)piperazin-1-yl)-7-(8-methylnaphthalen-1-yl)-5,6,7,8-tetrahydropyrido[3,4-d]pyrimidin-2-yl)oxy)-N,N-dimethylpropanamide], the concentration for half-maximal inhibition (IC50) lay within 0.1 to 1000 nM.

`C=CC(=O)N1CCN(c2nc(OC[C@@H]3CN(C)CCN3)nc3c2CCN(c2cccc4ccccc24)C3)CC1CC#N` (stereo partly drawn) [Example 223, 2-(1-acryloyl-4-(2-(((S)-4-methylpiperazin-2-yl)methoxy)-7-(naphthalen-1-yl)-5,6,7,8-tetrahydropyrido[3,4-d]pyrimidin-4-yl)piperazin-2-yl)acetonitrile]: the IC50 was in the range of 0.1 to 1000 nM.

As for `C=CC(=O)N1CCN(c2nc(OCCN(C)C)nc3c2CCN(c2cc(O)cc4ccccc24)C3)C(CCO)C1` (stereo not shown) [Example 172, 1-(4-(2-(2-(dimethylamino)ethoxy)-7-(3-hydroxynaphthalen-1-yl)-5,6,7,8-tetrahydropyrido[3,4-d]pyrimidin-4-yl)-3-(2-hydroxyethyl)piperazin-1-yl)prop-2-en-1-one], the IC50 is over 1000 nM.

Turning to `C=CC(=O)N1CCN(c2nc(OC[C@@H]3CCCN3C)nc3c2CCN(c2cccc4ccc(C)cc24)C3)C[C@@H]1CC#N` [Example 326, 2-((S)-1-acryloyl-4-(7-(7-methylnaphthalen-1-yl)-2-(((S)-1-methylpyrrolidin-2-yl)methoxy)-5,6,7,8-tetrahydropyrido[3,4-d]pyrimidin-4-yl)piperazin-2-yl)acetonitrile], the IC50 fell in the range of 0.1 to 1000 nM.

In the case of `C=CC(=O)N1CCN(c2nc(OCC3CN(C)CCN3C)nc3c2CCN(c2cc(O)cc4ccccc24)C3)CC1` (stereo not shown) [Example 219, 1-(4-(2-((1,4-dimethylpiperazin-2-yl)methoxy)-7-(3-hydroxynaphthalen-1-yl)-5,6,7,8-tetrahydropyrido[3,4-d]pyrimidin-4-yl)piperazin-1-yl)prop-2-en-1-one], the IC50 was over 1000 nM.

For the compound `C=CC(=O)N1CCN(c2nc(OCCCN3CCOCC3)nc3c2CCN(c2cc(O)ccc2OC(C)C)C3)CC1` [Example 96, 1-(4-(7-(5-hydroxy-2-isopropoxyphenyl)-2-(3-morpholinopropoxy)-5,6,7,8-tetrahydropyrido[3,4-d]pyrimidin-4-yl)piperazin-1-yl)prop-2-en-1-one], the IC50 is over 1000 nM.

For the compound `CC(C)=CC(=O)N1CCN(c2nc(OC[C@@H]3CCCN3C)nc3c2CCN(c2cccc4ccccc24)C3)CC1CC#N` (stereo partly drawn) [Example 282, 2-(1-(3-methylbut-2-enoyl)-4-(2-(((S)-1-methylpyrrolidin-2-yl)methoxy)-7-(naphthalen-1-yl)-5,6,7,8-tetrahydropyrido[3,4-d]pyrimidin-4-yl)piperazin-2-yl)acetonitrile], the IC50 is over 1000 nM.

Take `C=C(F)C(=O)N1CCN(c2ncnc3c2CCN(c2cccc4ccccc24)C3)C[C@@H]1CC#N` [Example 610, (S)-2-(1-(2-fluoroacryloyl)-4-(7-(naphthalen-1-yl)-5,6,7,8-tetrahydropyrido[3,4-d]pyrimidin-4-yl)piperazin-2-yl)acetonitrile]: the half-inhibitory concentration (IC50) was over 1000 nM.

As for `C=CC(=O)N1CCN(c2nc(OC[C@@H]3CCCN3C)nc3c2CCN(c2cccc(C)c2C(F)(F)F)C3)CC1CC#N` (stereo partly shown) [Example 265], the IC50 fell in the range of 0.1 to 1000 nM.

In the case of `C[C@H](CN(C)C)Oc1nc2c(c(N3CCN(C(=O)/C=C/CN(C)C)CC3)n1)CCN(c1cc(O)cc3ccccc13)C2` [Example 122, (R,E)-4-(dimethylamino)-1-(4-(2-((1-(dimethylamino)propan-2-yl)oxy)-7-(3-hydroxynaphthalen-1-yl)-5,6,7,8-tetrahydropyrido[3,4-d]pyrimidin-4-yl)piperazin-1-yl)but-2-en-1-one bis-trifluoroacetate], the IC50 was over 1000 nM.

As to `C=CC(=O)N1CCN(c2nc(OC[C@@H]3CCCN3C)nc3c2CCN(c2cccc4ccc(OC)cc24)C3)CC1CC#N` (stereo partly drawn) [Example 255, 2-[4-[7-(7-methoxy-1-naphthyl)-2-[[(2S)-1-methylpyrrolidin-2-yl]methoxy]-6,8-dihydro-5H-pyrido[3,4-d]pyrimidin-4-yl]-1-prop-2-enoyl-piperazin-2-yl]acetonitrile], the half-inhibitory concentration (IC50) is over 1000 nM.

For `C=CC(=O)N1CCN(c2nc(OC[C@@H]3CCCN3C)nc3c2CCN(c2cccc4ccccc24)C3)CC1` [Example 200, (S)-1-(4-(2-((1-methylpyrrolidin-2-yl)methoxy)-7-(naphthalen-1-yl)-5,6,7,8-tetrahydropyrido[3,4-d]pyrimidin-4-yl)piperazin-1-yl)prop-2-en-1-one], the IC50 was over 1000 nM.
